Laboratory results published in ChEMBL document CHEMBL5512664, “Emerging and Re-emerging Warheads for Targeted Covalent Inhibitors: An Update” (J Med Chem, 2024).

Columns and labels:
[1] = GSH reactivity in PBS buffer at pH 7.4 assessed as half life; assay type: ADME
[2] = molecular target: T1, Carbonic anhydrase 2 (Homo sapiens, UniProt P00918); assay: Rate of protein modification at carbonic anhydrase II (unknown origin) fragment assessed as inhibition constant
[3] = molecular target: T1, Carbonic anhydrase 2; assay: Binding affinity to carbonic anhydrase II (unknown origin) fragment assessed as rate of protein modification by measuring inactivation rate constant (Kinact)
[4] = Reactivity of SuTEx assessed as aryl-AG modifications by measuring half life by HLPC analysis; assay type: physicochemical
[5] = GSH reactivity in PBS buffer at pH 8 assessed as second-order reaction rate constants upto 200 uM by DTNB assay; assay type: ADME; conditions: pH 8, 200 µM
[6] = Cytotoxicity against African green monkey Vero E6 cells; assay type: toxicity, cell-based, Vero C1008; conditions: chlorocebus sabaeus
[7] = species on record: Homo sapiens; assay: Inhibition of wild type Hsp90 (unknown origin) assessed as inactivation rate constant (Kinact)
[8] = species on record: Homo sapiens; assay: Binding affinity to wild type Hsp90 (unknown origin) assessed as rate of modification half life
[9] = molecular target: T2, Replicase polyprotein 1ab (Severe acute respiratory syndrome coronavirus 2, UniProt P0DTD1); assay: Binding affinity to SARS-CoV-2 cysteine protease-Mpro assessed as inhibition constant
[10] = molecular target: Replicase polyprotein 1ab (Severe acute respiratory syndrome coronavirus 2) (UniProt P0DTD1); assay: Binding affinity to SARS-CoV-2 cysteine protease-Mpro assessed as inactivation rate constant (Kinact)
[11] = Reactivity rate at cyclic sulfonamide assessed as rate constant by CSA sulfenic-acid model; assay type: physicochemical
[12] = Chemical stability of the compound in pH 7.4 buffer assessed as half life; assay type: physicochemical
[13] = GSH reactivity in PBS buffer at pH 8 at 14 degC assessed as half life upto 200 uM; assay type: ADME
[14] = molecular target: T2, Replicase polyprotein 1ab; assay: Inhibition of SARS-CoV-2 papain-like protease (PLpro) using fluorogenic peptide substrate by fluorescent assay
[15] = Reactivity of SuTEx assessed as aryl-LG modifications by measuring half life by HLPC analysis; assay type: physicochemical
[16] = molecular target: Bromodomain-containing protein 4 (Homo sapiens) (UniProt O60885); assay: Binding affinity to his-tagged recombinant BRD4 BD1 (unknown origin) assessed as increase in thermal stability by measuring change in melting temperature after 4 hrs by cellular thermal shift assay
[17] = Cysteine-reactive in peptide assessed as half life using fluorogenic monochlorobimane/zinc complex by measuring fluorescence intensity; assay type: ADME; conditions: cysteine-containing peptide

Q: For CCCSc1nc2sc3c(c2c(=O)n1CC)CCc1ccccc1-3, which half-life [1] is on record?
A: 41 min

Q: What does the source list for CC(NC(=O)c1cccc(S(=O)(=O)F)c1)c1cccc(S(N)(=O)=O)c1 (configuration not stated)?
A: Ki [2]: 53 µM; Kinact [3]: 0.24 10^-5/s

Q: Which half-life [4] does the source give for COc1ccc(-c2ncn(S(=O)(=O)c3cccnc3)n2)cc1 here?
A: 1.6 min

Q: Which half-life [1] does the source give for CC(=O)N(C)c1ccccc1 here?
A: 20 min

Q: For NS(=O)(=O)c1ccc(CCNC(=O)c2ccc(S(=O)(=O)F)cc2)cc1, which Ki [2] is on record?
A: < 5 µM

Q: And the Kinact [3]?
A: 0.89 10^-5/s

Q: Which K [5] does the source give for O=C(COS(=O)(=O)Nc1ccc(Br)cc1)NCc1ccccc1 here?
A: 0.003 M⁻¹ s⁻¹

Q: Which CC50 [6] does the source give for C[C@@H](NC(=O)[C@H](c1cccnc1)N(C(=O)C(Cl)Cl)c1ccc(-c2ccccc2)cc1)c1ccccc1 here?
A: > 100 µM

Q: For COc1ccc(-c2ncn(S(=O)(=O)c3ccc(-c4ccccc4)cc3)n2)cc1, which half-life [4] is on record?
A: 17.3 min

Q: For Nc1ncnc2c1ncn2[C@@H]1O[C@H](CN(CC[C@H](N)C(=O)O)S(=O)(=O)c2ccc(Cl)c([N+](=O)[O-])c2)[C@@H](O)[C@H]1O, which half-life [1] is on record?
A: < 2 min

Q: Which Kinact [7] does the source give for Nc1ncnc2c1nc(Sc1cc3c(cc1I)OCO3)n2C[C@@H]1CCCN(Cc2cccc(S(=O)(=O)F)c2)C1 here?
A: 6.67 10^-5/s

Q: And the T1/2 [8]?
A: 200 min

Q: Which Ki [9] does the source give for O=C(NCCc1cccc(F)c1)[C@H](c1cncnc1)N(C(=O)[C@H](F)Cl)c1ccc(S(F)(F)(F)(F)F)cc1 here?
A: 64.7 µM

Q: And the Kinact [10]?
A: 4.3 10^-3/s

Q: With C#CCCC(=O)C(SC[C@H](NC(=O)OCc1ccccc1)C(=O)N[C@H](C(=O)OC)C(C)C)[P+](c1ccccc1)(c1ccccc1)c1ccccc1 (some centres not stated) as the compound, how does the K [11] read?
A: 15000 M⁻¹ s⁻¹

Q: For O=S(=O)(c1ccccc1)C12CC1C2 (configuration not stated), which half-life [1] is on record?
A: 708 min

Q: With CC#CC1=Nc2ccccc2C(C)(C)O1 as the compound, how does the half-life [12] read?
A: > 167 h

Q: What about the half-life [1] of the same compound?
A: 82 min

Q: For NS(=O)(=O)c1cccc(CNS(=O)(=O)c2ccc(S(=O)(=O)F)cc2)c1, which Ki [2] is on record?
A: < 5 µM

Q: What about the Kinact [3] of the same compound?
A: 9.6 10^-5/s

Q: For C#CCCCN1c2ccccc2C(=O)CS1(=O)=O, which K [11] is on record?
A: 1700 M⁻¹ s⁻¹

Q: Which results are given for O=C(COS(=O)(=O)NCc1ccccc1)NCc1ccccc1?
A: half-life at up to 200 µM [13]: ~720 min; K [5]: 0.02 M⁻¹ s⁻¹

Q: What does the source list for CNS(=O)(=O)OCC(=O)NCc1ccccc1?
A: half-life at up to 200 µM [13]: ~300 min; K [5]: 0.029 M⁻¹ s⁻¹

Q: Which IC50 [14] does the source give for C=CCSc1nc2sc3c(c2c(=O)n1CC)CCc1ccccc1-3 here?
A: 0.8 µM

Q: And the half-life [1]?
A: 41 min

Q: Which results are given for O=C(NCCc1cccc(F)c1)[C@@H](c1cncnc1)N(C(=O)[C@@H](F)Cl)c1ccc(S(F)(F)(F)(F)F)cc1?
A: Ki [9]: 53.6 µM; Kin [10]: 1.1 10^-3/s

Q: For O=S(=O)(c1ccc(F)cc1)n1cnc(-c2ccc(Br)cc2)n1, which half-life [15] is on record?
A: 6.6 min

Q: For CN(C)S(=O)(=O)OCC(=O)NCc1ccccc1, which K [5] is on record?
A: 0.012 M⁻¹ s⁻¹

Q: With C#CCOCCOCCOc1cccc(N2CCN(C(=O)C(F)F)CC2)c1 as the compound, how does the half-life [1] read?
A: 7740 min

Q: What does the source list for CC(NC(=O)c1ccc(S(=O)(=O)F)cc1)c1cccc(S(N)(=O)=O)c1 (configuration not stated)?
A: Ki [2]: 33 µM; Kinact [3]: 0.45 10^-5/s

Q: With Cc1noc(C)c1-c1ccc(=O)n(Cc2ccc(C3CO3)cc2)c1 (configuration not stated) as the compound, how does the ΔTm [16] read?
A: 22 °C

Q: With NC(=O)C(F)Br (configuration not stated) as the compound, how does the half-life [1] read?
A: 9 min

Q: With NC(=O)C(Br)Br as the compound, how does the half-life [1] read?
A: < 100 min

Q: With NS(=O)(=O)c1cccc(CNC(=O)c2cccc(S(=O)(=O)F)c2)c1 as the compound, how does the Ki [2] read?
A: < 5 µM

Q: What about the Kinact [3] of the same compound?
A: 21 10^-5/s

Q: For CC#CC1=Nc2ccccc2C(C)(C)N1, which half-life [12] is on record?
A: > 167 h

Q: And the half-life [1]?
A: 1.5 min

Q: Which results are given for NC(=O)CCl?
A: half-life [17]: 2.4 min; half-life [1]: < 100 min

Q: Which results are given for O=C(NCCc1cccc(F)c1)[C@@H](c1cncnc1)N(C(=O)[C@H](F)Cl)c1ccc(S(F)(F)(F)(F)F)cc1?
A: Ki [9]: 1.34 µM; Kinact [10]: 5.6 10^-3/s

Q: With CCSc1nc2sc3c(c2c(=O)n1CC)CCc1ccccc1-3 as the compound, how does the IC50 [14] read?
A: 4.9 µM

Q: And the half-life [1]?
A: 41 min

Q: Which half-life [4] does the source give for COc1ccc(-c2ncn(S(=O)(=O)C3CC3)n2)cc1 here?
A: > 360 min

Q: Which half-life [1] does the source give for NC(=O)C(Cl)Br (configuration not stated) here?
A: < 100 min

Q: For CC(NC(=O)Cc1ccc(S(=O)(=O)F)cc1)c1cccc(S(N)(=O)=O)c1 (configuration not stated), which Ki [2] is on record?
A: 22 µM

Q: And the Kinact [3]?
A: 0.97 10^-5/s
